# In US7666901B2, “Analogs of 17-hydroxywortmannin as PI3K inhibitors” (Wyeth, priority 2004, dated 2010):
# Legend:
# [1] = tested on: LNCaP (human prostate carcinoma); assay: Cell proliferation (MTS) assay, LNCaP; type: cell-based; conditions: three days treatment; for IC50: Homo sapiens, LNCaP, 72 h
# Procedure: (§1) Results of cell proliferation assays for exemplary compounds are shown below in Tables 1 and 2. Cell lines LNCaP (human prostate carcinoma), MDA468 (human breast cancer cell), MDA435 (human breast adenocarcinoma), and DU145 (human prostate carcinoma[…]) were purchased from American Type Culture Collection (ATCC) (Rockville, Md.). Cells were cultured in RPMI Medium 1640 containing 10% fetal bovine serum (FBS) in a 37° C. incubator containing 5% CO2. All cell culture reagents were purchased from Gibco-BRL (Grand Island, N.Y.). Cells were plated in 96-well culture plates at about 3000 cells per well. One day following plating, compounds or vehicle controls (buffer only) were added to cells. Proliferation assays were performed three days post initiation of treatment.
# (§2) For a non-radioactive cell proliferation assay, viable cell densities are determined by measuring metabolic conversion (by viable cells) of the dye MTS tatrazolium dye, a cell proliferation assay known by one of skill in the art (MTS assay), a previously established cell proliferation assay. The assay is performed using an assay kit (Promega Corp., Madison, Wis.). The assay plates are incubated for 1-2 hours, and the results are read in a 96-well format plate reader by measuring absorbance at 490 nm. Effect of each compound is calculated as a percentage of control cell growth obtained from vehicle-treated cells grown in the same plate.
# Human TOR = molecular target: T1, Human TOR (Homo sapiens, UniProt P42345); assay: Human TOR (mTOR) kinase assay, DELFIA format; type: biochemical
# T1 construct: FLAG
# Procedure: The PI3K/AKT/TOR pathway is critical for cell proliferation, growth, survival, and angiogensis. Accordingly, compounds of the present invention may also be useful to inhibit TOR activity. Similar in vivo and in vitro assays to those described above with reference to PI3K can be used to determine the minimum concentration of compound sufficient to inhibit TOR. A human TOR assay and a Rat1-IGF1 assay as described in Examples 67 and 68, respectively was performed with some embodiments of the invention. The results of these assays are shown below in Tables 1 and 2.
# Human TOR assays (See Toral-Barza, et al. Biochem Biophys. Res. Commun. 2005 Jun. 24; 332(1):304-10) with purified enzyme are performed in 96-well plates by DELFIA format as follows. Enzymes are first diluted in kinase assay buffer (10 mM Hepes (pH 7.4), 50 mM NaCl, 50 mM b-glycerophosphate, 10 mM MnCl2, 0.5 mM DTT, 0.25 mM microcystin LR, and […] BSA). To each well, 12 mL of the diluted enzyme is mixed briefly with 0.5 mL test inhibitor or control vehicle dimethylsulfoxide (DMSO). The kinase reaction is initiated by adding 12.5 mL kinase assay buffer containing ATP and His6-S6K to give a final reaction volume of 25 mL containing 800 ng/mL FLAG-TOR, […] ATP and […] His6-S6K. The reaction plate is incubated for 2 hours (linear at 1-6 hours) at room temperature with gentle shaking and then terminated by adding 25 mL Stop buffer (20 mM Hepes (pH 7.4), 20 mM EDTA, 20 mM EGTA). The DELFIA detection of the phosphorylated (Thr-389) His6-S6K is performed at room temperature using a monoclonal anti-P(T389)-p70S6K antibody (1A5, Cell Signaling) labeled with Europium-N1-ITC (Eu) (10.4 Eu per antibody, PerkinElmer). The DELFIA Assay buffer and Enhancement solution can be purchased from PerkinElmer. 45 mL of the terminated kinase reaction mixture is transferred to a MaxiSorp plate (Nunc) containing 55 mL PBS. The His6-S6K is allowed to attach for 2 hours after which the wells are aspirated and washed once with PBS. 100 mL of DELFIA Assay buffer with 40 ng/mL Eu-P(T389)-S6K antibody is added. The antibody binding is continued for 1 hour with gentle agitation. The wells are then aspirated and washed 4 times with PBS containing 0.05% Tween-20 (PBST). […] of DELFIA Enhancement solution is added to each well and the plates are read in a PerkinElmer Victor model plate reader. Data obtained is used to calculate enzymatic activity and enzyme inhibition by potential inhibitors.
# [2] = tested on: MDA468 (human breast cancer cell); assay: Cell proliferation (MTS) assay, MDA468; type: cell-based; conditions: three days treatment; for IC50: Homo sapiens, 72 h
# Procedure: as §1, §2
# [3] = tested on: DU145 (human prostate carcinoma/lymphocytic leukemia); assay: Cell proliferation (MTS) assay, DU145; type: cell-based; conditions: three days treatment; for IC50: Homo sapiens, DU-145, 72 h
# Procedure: as §1, §2
# [4] = tested on: MDA435 (human breast adenocarcinoma); assay: Cell proliferation (MTS) assay, MDA435; type: cell-based; conditions: three days treatment; for IC50: Homo sapiens, MDA435, 72 h
# Procedure: as §1, §2
# [5] = tested on: phosphor-AKT (S473) in Rat1 cells; assay: Rat1-IGF1 assay (IGF-1 induced phospho-AKT immunoblot); type: cell-based, rat; conditions: Rattus norvegicus
# Procedure: Rat1 cells are plated in 6-well culture plates and serum-starved for 24 hours. Serum-starved cells are treated either with control vehicle or with various concentrations of 17-HWT for 2 hours, stimulated by IGF-1 (100 ng/mL) for 30 minutes. Total cellular lysates are prepared using NuPAGE-LDS sample buffer (Invitrogen), sonicated and then clarified by centrifugation. Equal amounts of proteins are subject to immunoblotting analysis using NuPAGE electrophoresis system and probed with phosphor-AKT (S473), total AKT antibodies (Signaling Technology).
# PI3K = tested on: T2, PI3K; assay: Fluorescence polarization assay for PI3K; type: biochemical; conditions: for PI3K FP IC50: Table 1
# T2 construct: PI3K FP IC50
# Procedure: This assay is used to determine the IC50 of compounds of the present invention as it identifies inhibitors of PI3 kinase by measuring inhibition.
# The assay is run by placing 5 μL of diluted enzyme per well, then 5 μL of diluted compound (or 9.5 μL enzyme then 0.5 μL compound in DMSO) is added and mixed. Then, 10 μL substrate is added to start the reaction. The samples are incubated 30-60 minutes, then the reaction is stopped by adding 20 μL stop/detector mix.
# PI3K is diluted with reaction buffer (e.g., 5 μL or 7.5 μL PI3K into 620 μL reaction buffer), and 5 μL of diluted enzyme is used per well. 5 μL reaction buffer or drug diluted in buffer (e.g., 4 μL/100 so final DMSO is 1% in reaction) is added to each. The samples are mixed by pipetting up and down. Alternatively, the enzyme can be diluted to 1215 μL. In this case 9.8 μL is added per well and 0.2 μL compound is added in DMSO.
# To prepare 1 mL of substrate solution, 955 μL reaction buffer, 40 μL PIP2, and 2.5 μL ATP are mixed. 10 μL of substrate is added to each well to start the reaction.
# Stop/detector mix is prepared by mixing 4 μL Red detector and 1.6 μL or 2.0 μL GST-GRP with 1 mL Stop buffer, which results in 10 nM probe and 70 nM GST-GRP). 20 μL of the stop/detector mix is added to each well to stop the reaction. The plates are read after 30-90 minutes keeping the red probe solutions dark.
# For the zero time point, stop/detector mix is added to the enzyme just before adding substrate. For an extra control, stop/detector mix is added to buffer (no enzyme) and substrate or to just buffer (no substrate).
# The recommended reaction has 0.06 μL per 20 μL (0.015 μg/20 μL) or 0.01125 μg/15 μL or 0.75 μg/mL.
# Plates are read on machines with filters for Tamra. The units are mP with no enzyme controls reading app 190-220 mP units. Fully active enzyme reduces fluorescence polarization down to 70-100 mP after 30 minutes. An active cpd raises the mP values halfway to control or to 120-150 mP units.
Molecule,IC50 ([1]; Table 1),IC50 ([1]; Table 2),IC50 (Human TOR; Table 1),IC50 (Human TOR; Table 2),IC50 ([2]; Table 1),IC50 ([2]; Table 2),IC50 ([3]; Table 1),IC50 ([3]; Table 2),IC50 ([4]; Table 1),IC50 ([4]; Table 2),IC50 ([5]; Table 1),IC50 ([5]; Table 2),IC50 (PI3K; Table 2),LNCaP IC50 ([1]; Table 1),TOR IC50 (Human TOR; Table 1),MDA468 IC50 ([2]; Table 1),DU145 IC50 ([3]; Table 1),MDA435 IC50 ([4]; Table 1),PI3K FP IC50 (PI3K)
"COC[C@H]1OC(=O)/C(=C/N(C)CCCN(C)C)C2=C(O)C(=O)C3=C([C@H](OC(C)=O)C[C@@]4(C)C3CC[C@@H]4O)[C@]21C (stereo partly drawn) [Compound 5, (1E,4S,4aR,5R,6aS,7S)-1-{[[3-(dimethylamino)propyl](methyl)amino]methylene}-7,11-dihydroxy-4-(methoxymethyl)-4a,6a-dimethyl-2,10-dioxo-1,2,4,4a,5,6,6a,7,8,9,9a,10-dodecahydroindeno[4,5-h]isochromen-5-yl acetate]",0.4 µg/mL,0.28 µg/mL,2560 nM,1280 nM,1.8 µg/mL,2 µg/mL,10 µg/mL,9.5 µg/mL,15 µg/mL,8.2 µg/mL,0.02 µg/mL,–,–,–,–,–,–,–,–
"COC[C@H]1OC(=O)/C(=C/N2CCN(C3CCCCC3)CC2)C2=C(O)C(=O)C3=C([C@H](OC(C)=O)C[C@@]4(C)C3CC[C@@H]4O)[C@]21C (stereo partly drawn) [Compound 7, (1E,4S,4aR,5R,6aS,7S)-1-[(4-cyclohexylpiperazin-1-yl)methylene]-7,11-dihydroxy-4-(methoxymethyl)-4a,6a-dimethyl-2,10-dioxo-1,2,4,4a,5,6,6a,7,8,9,9a,10-dodecahydroindeno[4,5-h]isochromen-5-yl acetate]",0.88 µg/mL,–,818 nM,–,2 µg/mL,–,> 15 µg/mL,–,> 15 µg/mL,–,0.02 µg/mL,–,–,–,–,–,–,–,–
"CCCCN(C)/C=C1/C(=O)O[C@H](COC)[C@@]2(C)C1=C(O)C(=O)C1=C2[C@H](OC(C)=O)C[C@@]2(C)C1CC[C@@H]2O (stereo partly drawn) [Compound 8, (1E,4S,4aR,5R,6aS,7S)-1-{[butyl(methyl)amino]methylene}-7,11-dihydroxy-4-(methoxymethyl)-4a,6a-dimethyl-2,10-dioxo-1,2,4,4a,5,6,6a,7,8,9,9a,10-dodecahydroindeno[4,5-h]isochromen-5-yl acetate]",0.09 µg/mL,0.12 µg/mL,8310 nM,9080 nM,0.6 µg/mL,0.9 µg/mL,2 µg/mL,1.3 µg/mL,5 µg/mL,3.1 µg/mL,0.1 µg/mL,–,–,–,–,–,–,–,–
"COC[C@H]1OC(=O)/C(=C\NCCOCCOCCNC(=O)CCCC[C@H]2SC[C@H]3NC(=O)N[C@H]32)C2=C(O)C(=O)C3=C([C@H](OC(C)=O)C[C@@]4(C)C3CC[C@@H]4O)[C@]21C (stereo partly drawn) [Compound 51, (1Z,4S,4aR,5R,6aS,7S)-7,11-dihydroxy-4-(methoxymethyl)-4a,6a-dimethyl-2,10-dioxo-1-{12-oxo-16-[(3aR,4R,6aS)-2-oxohexahydro-1H-thieno[3,4-d]imidazol-4-yl]-5,8-dioxa-2,11-diazahexadec-1-ylidene}-1,2,4,4a,5,6,6a,7,8,9,9a,10-dodecahydroindeno[4,5-h]isochromen-5-yl acetate]",–,2.8 µg/mL,–,–,–,30 µg/mL,–,–,–,–,–,> 0.2 µg/mL,–,–,–,–,–,–,–
"COC[C@H]1OC(=O)/C(=C/N(C)CCCN(C)C)C2=C(O)C(=O)C3=C([C@H](O)C[C@@]4(C)C3CC[C@@H]4O)[C@]21C (stereo partly drawn) [Compound 60, (1E,4S,4aR,5R,6aS,7S)-1-{[[3-(dimethylamino)propyl](methyl)amino]methylene}-5,7,11-trihydroxy-4-(methoxymethyl)-4a,6a-dimethyl-4a,5,6,6a,7,8,9,9a-octahydroindeno[4,5-h]isochromene-2,10(1H,4H)-dione]",–,0.33 µg/mL,–,396 nM,–,2 µg/mL,–,–,–,–,–,–,7 nM,–,–,–,–,–,–
"(1E,4S,4aR,5R,6aS,7S)-1-[(diallylamino)methylene]-7-(formyloxy)-11-hydroxy-4-(methoxymethyl)-4a,6a-dimethyl-2,10-dioxo-1,2,4,4a,5,6,6a,7,8,9,9a,10-dodecahydroindeno[4,5-h]isochromen-5-yl acetate [Compound 17]",–,–,–,–,–,–,–,–,–,–,–,–,–,0.14 µg/mL,1.3 µg/mL,0.5 µg/mL,3 µg/mL,7 µg/mL,0.607 µg/mL
"(1E,4S,4aR,5R,6aS,7S)-7-(formyloxy)-11-hydroxy-4-(methoxymethyl)-4a,6a-dimethyl-2,10-dioxo-1-(pyrrolidin-1-ylmethylene)-1,2,4,4a,5,6,6a,7,8,9,9a,10-dodecahydroindeno[4,5-h]isochromen-5-yl acetate [Compound 16]",–,–,–,–,–,–,–,–,–,–,–,–,–,0.08 µg/mL,8 µg/mL,0.28 µg/mL,1.3 µg/mL,5.5 µg/mL,1.994 µg/mL
